# Active and inactive are the calls of the source. The calls are words filed in the database; no cut-off is given here.
# How the values were obtained:
# BMDM = assay: Induction of cytokine release in mouse BMDM cells at 0.01 to 10 uM after 24 hrs by ELISA; format: functional, cell-based
# Bacillus anthracis = assay: Protection against Bacillus anthracis infection in A/J mouse; format: functional, organism-based
structure (smiles),measurement,setting,value
COCCOc1nc(N)c2nc(O)n(Cc3ccc(C=O)cc3)c2n1,Activity,BMDM,Active
same,Activity,Bacillus anthracis,inactive

# — ChEMBL document CHEMBL1147075, “Immunotherapeutic activity of a conjugate of a Toll-like receptor 7 ligand” (Proc Natl Acad Sci U S A, 2007)
